The text below walks through data of PMC5107307 (ACS chemical biology, 2016).

In general, half-life refers to the time needed for the level to fall by half in the phase considered. The low end stands for rapid decline, the high end for slow decline. The term IC50 denotes the point on the concentration scale where inhibition reaches its midpoint. Read a low IC50 as greater potency.

Structures are written as SMILES. Values joined by “and” are separate entries in the source; they are usually repeats but may differ in a detail not shown here. Equal values may be shown once. Non-standard residues stand in square brackets, D forms with d. Residues, ends and D or L forms follow the SMILES beside them.

The conditions of series [1]: prior pharmacokinetic/pharmacodynamic data; cited from earlier work.
The conditions of series [2]: radiolabeled peptide; cited from earlier work.
A further series addresses T1, bovine trypsin (Bos taurus, UniProt P00760).
T1 sequence (P00760 24-246): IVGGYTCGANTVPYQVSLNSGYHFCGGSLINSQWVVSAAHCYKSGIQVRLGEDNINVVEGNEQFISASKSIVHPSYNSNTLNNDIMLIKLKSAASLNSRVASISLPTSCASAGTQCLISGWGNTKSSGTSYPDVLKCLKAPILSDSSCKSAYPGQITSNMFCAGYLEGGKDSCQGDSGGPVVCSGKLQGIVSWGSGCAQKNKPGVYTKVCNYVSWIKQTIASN
The series can be described thus: in vitro. The format is in vitro ADME.

A further series addresses proteinase K (Parengyodontium album, UniProt P06873). The series can be described thus: in vitro. Conditions: fungal, proteinase K (isolated protease).
For the next series, the target named is β2-adrenergic receptor (Homo sapiens, UniProt P07550). As to the kind of experiment: Effect on isoproterenol-stimulated cAMP production in SGS-72 cells. The settings on record: Fig. S1b.
A further series deals with female CD1 mice. As to the kind of experiment: Antagonism of PTH. The format is in vivo, mouse. Conditions: antagonist 500 nmol/kg s.c. one hour after PTH(1–34) 10 nmol/kg.
The subject of another series is SGS-72 cells. The series can be described thus: Effect on basal cAMP levels in SGS-72 cells. Conditions: Fig. S1a. For orientation: cAMP levels reflect the balance of adenylyl cyclase and phosphodiesterase activity.
The subject of series [3] is constitutively active PTHR1 variants. The settings on record: cited from earlier work.
The next series deals with T2, VIP-receptor 1 (VIPR1) (Homo sapiens, UniProt P32241).
T2 sequence (P32241 31-457): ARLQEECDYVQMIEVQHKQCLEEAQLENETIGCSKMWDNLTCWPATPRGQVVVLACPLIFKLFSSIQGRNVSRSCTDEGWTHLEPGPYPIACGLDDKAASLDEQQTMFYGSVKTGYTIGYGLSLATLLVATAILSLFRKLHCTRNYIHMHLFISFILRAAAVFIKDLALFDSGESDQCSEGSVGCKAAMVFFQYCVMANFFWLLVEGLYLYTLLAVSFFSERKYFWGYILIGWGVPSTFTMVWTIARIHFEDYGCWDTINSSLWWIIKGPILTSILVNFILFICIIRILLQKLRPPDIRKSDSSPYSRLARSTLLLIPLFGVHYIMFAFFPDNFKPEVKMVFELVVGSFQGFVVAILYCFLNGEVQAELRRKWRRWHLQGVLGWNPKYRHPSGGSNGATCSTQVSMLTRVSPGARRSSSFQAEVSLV
The series can be described thus: Inhibition of VIP-induced cAMP production in SGS-72 cells.

The target of series [4] is T3, PTHR1 (Homo sapiens, UniProt Q03431).
T3 sequence (Q03431 27-593): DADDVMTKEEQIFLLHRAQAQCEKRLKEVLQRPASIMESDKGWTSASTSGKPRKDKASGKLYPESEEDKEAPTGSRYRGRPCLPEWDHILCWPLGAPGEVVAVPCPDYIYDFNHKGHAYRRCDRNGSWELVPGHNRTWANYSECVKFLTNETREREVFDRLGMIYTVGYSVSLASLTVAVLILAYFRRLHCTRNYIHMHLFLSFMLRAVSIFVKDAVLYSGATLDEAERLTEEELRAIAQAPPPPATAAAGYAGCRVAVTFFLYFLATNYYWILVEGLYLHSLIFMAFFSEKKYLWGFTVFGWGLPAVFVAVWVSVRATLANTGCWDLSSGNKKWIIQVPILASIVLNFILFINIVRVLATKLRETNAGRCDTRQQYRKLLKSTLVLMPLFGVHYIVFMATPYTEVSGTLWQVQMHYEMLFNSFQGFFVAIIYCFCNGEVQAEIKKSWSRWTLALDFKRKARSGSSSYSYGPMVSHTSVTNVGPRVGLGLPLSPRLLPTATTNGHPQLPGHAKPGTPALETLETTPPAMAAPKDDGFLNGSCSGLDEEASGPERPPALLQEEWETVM
As to the kind of experiment: PTHR1 competition binding assay with 125I-PTH.

The target of series [5] is T3, PTHR1. As to the kind of experiment: Antagonism of agonist-stimulated cAMP generation in SGS-72 cells. The format is cell-based.

proteinase K, sequence (P06873 106-384): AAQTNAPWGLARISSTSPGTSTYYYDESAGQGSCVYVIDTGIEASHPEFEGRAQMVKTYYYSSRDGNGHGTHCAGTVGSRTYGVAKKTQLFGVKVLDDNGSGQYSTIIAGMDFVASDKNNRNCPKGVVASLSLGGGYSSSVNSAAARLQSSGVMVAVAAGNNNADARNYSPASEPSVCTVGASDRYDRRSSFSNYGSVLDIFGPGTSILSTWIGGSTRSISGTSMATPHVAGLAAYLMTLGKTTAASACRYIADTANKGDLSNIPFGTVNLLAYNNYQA
β2-adrenergic receptor, sequence (P07550 whole entry): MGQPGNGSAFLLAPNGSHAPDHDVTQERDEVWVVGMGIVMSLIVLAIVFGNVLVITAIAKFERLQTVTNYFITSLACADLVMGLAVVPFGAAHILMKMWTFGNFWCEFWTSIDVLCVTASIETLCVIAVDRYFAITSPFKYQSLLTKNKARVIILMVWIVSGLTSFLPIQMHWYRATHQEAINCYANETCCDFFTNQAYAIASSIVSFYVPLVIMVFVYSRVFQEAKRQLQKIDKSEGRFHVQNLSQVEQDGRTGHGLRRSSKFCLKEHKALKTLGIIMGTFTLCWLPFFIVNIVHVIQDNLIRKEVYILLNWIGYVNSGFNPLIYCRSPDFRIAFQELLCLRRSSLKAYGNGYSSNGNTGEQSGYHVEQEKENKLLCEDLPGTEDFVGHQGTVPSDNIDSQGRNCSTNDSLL

`CC[C@H](C)[C@H](NC(=O)[C@H](CCC(=O)O)NC(=O)[C@H](CO)NC(=O)[C@@H](NC(=O)[C@@H](N)CO)C(C)C)C(=O)N[C@@H](CCC(N)=O)C(=O)N[C@@H](CC(C)C)C(=O)N[C@@H](CCSC)C(=O)N[C@@H](Cc1cnc[nH]1)C(=O)N[C@@H](CC(N)=O)C(=O)N[C@@H](CC(C)C)C(=O)NCC(=O)N[C@@H](CCCCN)C(=O)N[C@@H](Cc1cnc[nH]1)C(=O)N[C@@H](CC(C)C)C(=O)N[C@@H](CC(N)=O)C(=O)N[C@@H](CO)C(=O)N[C@@H](CCSC)C(=O)N[C@@H](CCC(=O)O)C(=O)N[C@@H](CCCN=C(N)N)C(=O)N[C@H](C(=O)N[C@@H](CCC(=O)O)C(=O)N[C@@H](Cc1c[nH]c2ccccc12)C(=O)N[C@@H](CC(C)C)C(=O)N[C@@H](CCCN=C(N)N)C(=O)N[C@@H](CCCCN)C(=O)N[C@@H](CCCCN)C(=O)N[C@@H](CC(C)C)C(=O)N[C@@H](CCC(N)=O)C(=O)N[C@@H](CC(=O)O)C(=O)N[C@H](C(=O)N[C@@H](Cc1cnc[nH]1)C(=O)N[C@@H](CC(N)=O)C(=O)N[C@@H](Cc1ccccc1)C(=O)O)C(C)C)C(C)C` [PTH(1–34)]: the “Half-life of clearance from the circulation” value in series [1] is 300 to 600 s. Also, in [2], the Stability in plasma entry is listed as “highly stable in plasma”.
For `CSCC[C@H](NC(=O)[C@H](CO)NC(=O)[C@H](CO)NC(=O)[C@H](CC(C)C)NC(=O)[C@H](Cc1c[nH]cn1)NC(=O)[C@H](CCCCN)NC(=O)[C@@H](Cc1c[nH]c2ccccc12)NC(=O)[C@H](CC(C)C)NC(=O)[C@H](CC(N)=O)NC(=O)[C@H](Cc1c[nH]cn1)NC(=O)[C@H](CCSC)NC(=O)[C@@H](N)Cc1ccccc1)C(=O)N[C@@H](CCC(=O)O)C(=O)N[C@@H](CCCNC(=N)N)C(=O)N[C@H](C(=O)N[C@@H](CCC(=O)O)C(=O)N[C@@H](Cc1c[nH]c2ccccc12)C(=O)N[C@@H](CC(C)C)C(=O)N[C@@H](CCCNC(=N)N)C(=O)N[C@@H](CCCCN)C(=O)N[C@@H](CCCCN)C(=O)N[C@@H](CC(C)C)C(=O)N[C@@H](CCC(N)=O)C(=O)N[C@@H](CC(=O)O)C(=O)N[C@H](C(=O)N[C@@H](Cc1c[nH]cn1)C(=O)N[C@@H](CC(N)=O)C(=O)N[C@@H](Cc1ccccc1)C(N)=O)C(C)C)C(C)C` [Peptide 1, bPTH(7–34) DTrp^12] (H-FMHNL[dW]KHLSSMERVEWLRKKLQDVHNF-NH2; N-terminus assumed), the “Protease stability, half life, Trypsin” value on bovine trypsin came out at 42 s. Further, the half-life at bovine trypsin (bovine, isolated enzyme trypsin) was 42 s; on proteinase K, 7.8 s. Besides, the “Effect on stimulation of cAMP production caused by isoproterenol” value on β2-adrenergic receptor was “neither α-peptide 1 nor α/β-peptide 2 substantially reduces”. In the series on female CD1 mice, the “Effect on PTH(1–34)-induced blood Ca2+ response, antagonist given after agonist” value is on record as “only small effects”. The “Effect on PTH(1–34)-induced blood Pi response, antagonist given after agonist” value in the series with female CD1 mice is “only small effects”. Also, in the series on SGS-72 cells, the “Effect on low basal cAMP levels in SGS-72 cells” value is “neither α-peptide 1 nor α/β-peptide 2 substantially reduces”. In addition, the “Inverse agonism of cAMP signaling at constitutively active PTHR1 variants” value in series [3] is reported as “acts as an inverse agonist”. The IC50 is over 1000 nM against VIP-receptor 1 (VIPR1) and 4.7 ± 1.2 nM at PTHR1 [4].
In the case of `CSCC[C@@H](CC(=O)N[C@@H](CCC(=O)O)C(=O)N[C@@H](CCCNC(=N)N)C(=O)N[C@H](C(=O)N[C@@H](CCC(=O)O)CC(=O)N[C@@H](Cc1c[nH]c2ccccc12)C(=O)N[C@@H](CC(C)C)C(=O)N[C@@H](CCCNC(=N)N)C(=O)N[C@@H](CCCCN)CC(=O)N[C@@H](CCCCN)C(=O)N[C@@H](CC(C)C)C(=O)N[C@@H](CCC(N)=O)C(=O)N[C@@H](CC(=O)O)CC(=O)N[C@H](C(=O)N[C@@H](Cc1c[nH]cn1)C(=O)N[C@@H](CC(N)=O)C(=O)N[C@H](CC(N)=O)Cc1ccccc1)C(C)C)C(C)C)NC(=O)[C@H](CO)NC(=O)[C@H](CO)NC(=O)[C@H](CC(C)C)NC(=O)C[C@H](Cc1c[nH]c2ccccc12)NC(=O)[C@H](CCCCN)NC(=O)[C@@H](Cc1c[nH]c2ccccc12)NC(=O)[C@H](CC(C)C)NC(=O)[C@H](CC(N)=O)NC(=O)[C@H](Cc1c[nH]cn1)NC(=O)[C@H](CCSC)NC(=O)[C@@H](N)Cc1ccccc1` [Peptide 2], on bovine trypsin, the “Protease stability, half life, Trypsin” value is over 1200 s. Further, the half-life on proteinase K is 150 s. Further, at β2-adrenergic receptor, the “Effect on stimulation of cAMP production caused by isoproterenol” value is “neither α-peptide 1 nor α/β-peptide 2 substantially reduces”. Further, in the series on female CD1 mice, the “Effect on PTH(1–34)-induced blood Ca2+ response, antagonist given after agonist” value is “only small effects”. Further, in the series with female CD1 mice, the “Effect on PTH(1–34)-induced blood Pi response, antagonist given after agonist” value is “only small effects”. The “Effect on low basal cAMP levels in SGS-72 cells” value in the series on SGS-72 cells was “neither α-peptide 1 nor α/β-peptide 2 substantially reduces”. Also, the IC50 is over 1000 nM on VIP-receptor 1 (VIPR1); 6.15 nM and 10.6 nM and 2.07 nM at PTHR1 [5]; 4.5 ± 1.2 nM at PTHR1 [4]. Besides, the “Reduction in M-PTH(1–11) inhibition potency of 2 in comparison to 1” value on PTHR1 [5] (SGS-72 cells, cAMP response to M-PTH(1–11)) is recorded as under 5 fold.
